Ends that are not written are not given here.
How the values were obtained:
hERG = hERG (Homo sapiens, UniProt Q12809); assay: in vitro; assay type: cell-based; settings: up to 30 µM
Protocol: Ion Channel Assays: Cell lines were grown, plated, and loaded with 1× loading buffer containing 1× dye and 2.5 mM freshly prepared probenecid. Assays were performed, and activity was measured using a FLIPR Tetra. Percent of activation and percent of inhibition were calculated to determine agonist and antagonist activity, respectively. […]
The FLIPR Potassium Assay Kit from Molecular Devices is used. It exploits the permeability of thallium ions (Tl+) through both voltage-and ligand-gated potassium (K+) channels. A novel, highly-sensiti ve
Tl+ indicator dye is utilized which produces a bright fluorescent signal upon the binding to Tl+ conducted through potassium chan-nels. […]
KINOMEscan® Assay fluorescence for improved signal/noise ratio.
The KINOMEscan screening platform employs a novel and propri- Membrane Potential Assay etary active site-directed competition binding assay to quantitatively The FLIPR® Membrane Potential Assay Kit is used which utilizes a pro-measure interactions between test compounds and the kinases. prietary fluorescent indicator dye in combination with a quencher to This robust and reliable assay technology affords investigators the reflect real-time membrane potential changes associated with ion ability to extensively annotate compounds with accurate, precise channel activation and ion transporter proteins. […]

ADRA2A = biological target: T1, ADRA2A (Homo sapiens, UniProt P08913); assay: ADRA2A GPCR cAMP modulation assay; assay type: cell-based; settings: compared to the controls
T1 construct: host or cells: cAMP Hunter cell line
T1 sequence (P08913 whole entry): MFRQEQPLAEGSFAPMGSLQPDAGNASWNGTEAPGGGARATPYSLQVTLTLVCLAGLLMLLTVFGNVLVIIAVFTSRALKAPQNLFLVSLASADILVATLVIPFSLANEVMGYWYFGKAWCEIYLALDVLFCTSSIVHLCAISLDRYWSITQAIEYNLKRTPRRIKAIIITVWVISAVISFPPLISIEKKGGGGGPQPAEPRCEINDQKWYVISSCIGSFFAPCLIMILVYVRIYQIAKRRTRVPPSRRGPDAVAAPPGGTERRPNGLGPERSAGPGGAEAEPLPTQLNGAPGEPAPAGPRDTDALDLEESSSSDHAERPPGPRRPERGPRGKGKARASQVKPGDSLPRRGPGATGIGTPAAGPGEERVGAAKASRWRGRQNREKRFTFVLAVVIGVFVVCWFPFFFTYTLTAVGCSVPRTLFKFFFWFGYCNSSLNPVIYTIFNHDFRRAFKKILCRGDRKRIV
Protocol: GPCR cAMP Modulation Assays: cAMP Hunter cell lines were grown, plated, and subjected to Eurofins’ DiscoverX HitHunter cAMP XS+ assay. Gs agonist activity, Gi agonist activity, and antagonist activity-induced assays were read using chemiluminescent signal detection. The percentage of activity was calculated for Gs and Gi agonist assays, and the percentage of inhibition was calculated for Gs antagonist assays. […]
cAMP Second ary Messenger Assay pound results in the release of calcium from intracellular stores and DiscoverX has developed a panel of cell lines stably expressing non- an increase in dye fluorescence that is measured in real-time. tagged GPCRs that endogenously signal through cAMP. […]
The enzyme is split into two complementary portions: Enzyme Ac-ceptor (EA) and Enzyme Donor (ED). […] Active enzyme can then convert a chemilumines-cent substrate, generating an output signal detectable on a standard The NHR is tagged with the ProLink™ (PK) component of our EFC microplate reader. assay system, and the SRCP domain is fused to the Enzyme Ac-ceptor component (EA) expressed in the nucleus. […]

Chain of hERG (Q12809 whole entry): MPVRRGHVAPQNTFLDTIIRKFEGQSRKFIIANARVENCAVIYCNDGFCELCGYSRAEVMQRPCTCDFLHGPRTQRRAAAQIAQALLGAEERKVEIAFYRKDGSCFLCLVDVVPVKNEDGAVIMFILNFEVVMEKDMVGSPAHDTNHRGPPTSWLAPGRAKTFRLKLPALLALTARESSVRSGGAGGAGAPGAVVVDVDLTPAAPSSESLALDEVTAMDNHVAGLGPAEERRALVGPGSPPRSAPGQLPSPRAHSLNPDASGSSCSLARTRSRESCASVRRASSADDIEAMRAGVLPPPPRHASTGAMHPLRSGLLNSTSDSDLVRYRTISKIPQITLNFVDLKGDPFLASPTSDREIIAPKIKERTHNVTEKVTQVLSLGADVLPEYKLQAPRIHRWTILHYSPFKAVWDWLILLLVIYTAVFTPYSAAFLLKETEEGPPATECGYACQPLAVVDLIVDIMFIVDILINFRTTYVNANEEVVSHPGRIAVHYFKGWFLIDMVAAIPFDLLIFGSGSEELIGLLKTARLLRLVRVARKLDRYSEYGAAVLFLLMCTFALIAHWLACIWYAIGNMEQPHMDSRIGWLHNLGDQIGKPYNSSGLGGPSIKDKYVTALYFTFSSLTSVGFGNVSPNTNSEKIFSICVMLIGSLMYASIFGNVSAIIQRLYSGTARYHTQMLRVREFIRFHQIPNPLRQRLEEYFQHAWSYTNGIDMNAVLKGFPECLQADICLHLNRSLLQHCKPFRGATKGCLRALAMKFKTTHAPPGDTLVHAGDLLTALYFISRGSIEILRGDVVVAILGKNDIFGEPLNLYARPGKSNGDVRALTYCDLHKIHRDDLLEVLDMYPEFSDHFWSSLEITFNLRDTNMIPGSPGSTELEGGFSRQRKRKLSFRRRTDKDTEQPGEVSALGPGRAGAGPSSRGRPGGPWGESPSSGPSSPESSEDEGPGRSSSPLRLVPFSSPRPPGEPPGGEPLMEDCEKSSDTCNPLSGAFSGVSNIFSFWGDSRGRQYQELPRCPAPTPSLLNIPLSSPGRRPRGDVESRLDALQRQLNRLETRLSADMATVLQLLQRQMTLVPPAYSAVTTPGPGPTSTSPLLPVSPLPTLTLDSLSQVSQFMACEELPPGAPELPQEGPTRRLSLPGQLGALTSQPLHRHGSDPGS

## APWHLSSQYSRT [CTP]
hERG; SAFETYscan ion channel assay
  blocking or activation: no significant blocking or activation
hERG; human, blocker, FLIPR Tetra, read-out: RC50 (the source's name)
  IC50: > 30 µM
ADRA2A
  agonist or antagonist action: no significant action as either an agonist or antagonist
